PMC9925730, “Controlled sequential in situ self-assembly and disassembly of a fluorogenic cisplatin prodrug for cancer theranostics” (Nature Communications, 2023)
Values joined by “and” are separate entries in the source; they are usually repeats but may differ in a detail not shown here. Equal entries are not always repeated.

Tests used:
ALP = target: T1, ALP (Bos taurus, UniProt P19111); assay: Dephosphorylated efficacy of P-CyPt towards varying concentrations of ALP (NIR fluorescence); assay type: biochemical
T1 construct: Alkaline phosphatase from bovine; purchased Sigma-Aldrich; host or cells: bovine intestinal mucosa (tissue-derived)
T1 sequence (P19111 20-533): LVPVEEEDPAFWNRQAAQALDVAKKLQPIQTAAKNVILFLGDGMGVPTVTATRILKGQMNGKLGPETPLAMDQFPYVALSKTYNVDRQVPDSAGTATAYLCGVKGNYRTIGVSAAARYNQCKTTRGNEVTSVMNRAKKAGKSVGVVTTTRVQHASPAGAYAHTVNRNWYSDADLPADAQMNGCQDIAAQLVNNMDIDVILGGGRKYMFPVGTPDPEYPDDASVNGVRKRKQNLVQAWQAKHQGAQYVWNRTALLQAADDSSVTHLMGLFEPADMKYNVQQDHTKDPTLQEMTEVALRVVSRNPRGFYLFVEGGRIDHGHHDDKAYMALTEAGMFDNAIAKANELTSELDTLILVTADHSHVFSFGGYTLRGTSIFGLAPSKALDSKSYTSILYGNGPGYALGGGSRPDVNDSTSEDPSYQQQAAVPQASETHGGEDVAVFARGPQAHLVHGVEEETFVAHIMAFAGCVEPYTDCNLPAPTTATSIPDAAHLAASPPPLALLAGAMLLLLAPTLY

HeLa cells = assay: Distribution of Pt element in subcellular organelles (ICP-OES); assay type: cell-based
Protocol: Supplementary Table 3. Comparison of the distribution of Pt element in different subcellular organelles between P-CyPt and CDDP. a Subcellular Amount of Pt distributed in a Percentage of Pt distributed in organelles single cell’s organelle (fmol) b a single cell’s organelle (%) c […]
a HeLa cells were incubated with P-CyPt or CDDP (10 μM) for 1 h. After that, the cells were washed with PBS for three times, replaced with blank medium and cultured for another 24 h. The cells were trypsinized, collected, and the cell numbers were counted.
The cell pellets were dispersed in PBS buffer, lysed via ultrasound sonication, and centrifuged at different speed to separate membrane, nucleus, lysosome together with mitochondria, and cytoplasm. The concentration of Pt element in each organelle fraction was then measured by ICP-OES. Values denote mean ± s.d. (n = 3 independent […]
b The amount of Pt in a single HeLa cell’s subcellular organelle was calculated by dividing the total amount of Pt element in different subcellular organelles to the cell […]
c Percentage of Pt distributed in a single HeLa cell’s subcellular organelles was calculated by dividing the amount of Pt in a single cell’s subcellular organelles by the amount of Pt in a single cell (sum of organelles). […]
For Pt distribution analysis, the cells were treated with P-CyPt (10 μM) or CDDP (10 μM) for 1 h, and then washed with PBS for three times, followed by incubation with fresh medium for another 24 h. After that, cells were washed gently with 2 mL PBS once. The cells were trypsinized, centrifuged and counted. The cell lysates were separated according to a reported fragmentation procedure to obtained different cell fractions, including N (nuclei), M (plasma membrane), L (lysosomes and mitochondria) and C (cytosol). The Cells and different cell fractions were digested with concentrated HNO3 (65~70%) and HCl (36~38%) at 90 °C for 24 h. The solution was diluted to 5 mL 2% HNO3 and 5% HCl solution, and the concentration of Pt element was measured by ICP-OES, which was further applied to calculate the amount of Pt in cells and subcellular organelles. […]
The count number for each flow cytometry analysis was ~5000 to 10000, and the data was processed using FlowJo software.
Evaluation of the ability to break DNA double strand. Supercoiled pBR322 plasmi d DNA (20 ng μL–1) was incubated with blank Tris buffer (i) or Tris buffer containing GSH (2 mM, ii), Tris buffer containing CDDP (100 μM, iii), Tris buffer containing GSH (2 mM) and CDDP (100 μM, iv), Tris buffer containing P-CyPt (100 μM, v), Tris buffer containing P-CyPt (100 μM) and GSH (2 mM, vi), Tris buffer containing P-CyPt (100 μM) and ALP (500 U/L, vii), and Tris buffer containing P-CyPt (100 μM), ALP (500 U/L) and GSH (2 mM, viii) or incubated with P-CyPt ((0, 1, 2, 5, 10, 20, 50 and 100 μM, from i-viii) respectively in the presence of ALP (500 U/L), followed by incubation with GSH (2 mM) in Tris buffer) at 37 °C for 16 h. Then, the reactions (10 μL) were quenched by loading buffer (2 μL, including 30 mM EDTA, 36% glycerol, 0.05% xylene cyanol FF, and 0.05% bromophenol blue). The resulting solutions and 1kb-I DNA ladder (GsDL10001) were loaded into native agarose gel (1%) and subjected to electrophoresis in a TAE buffer (40 mM Tris acetate, 1 mM EDTA). The

[1] = Cytoplasm (C), individual samples
[2] = Cytoplasm (C), mean of 3 samples
[3] = HeLa, 10 μM 1 h, then blank medium 24 h
[4] = Membrane(M), individual samples
[5] = Mito&Lyso (L), individual samples
[6] = Mito&Lyso (L), mean of 3 samples
[7] = Nucleus (N), individual samples

## CC1(C)C(/C=C/C2=C3Oc4cc(OP(=O)(O)O)c(Cl)cc4C=C3CCC2)=[N+](CCCNC(=O)[C@@H](Cc2ccccc2)NC(=O)[C@@H](Cc2ccccc2)NC(=O)CCC(=O)[O][Pt]([NH2])([NH2])([OH])([Cl])[Cl])c2ccccc21 [P-CyPt]
ALP; ALP 5 U/L, 10 min, mean of 3 samples
  Normalized FL intensity: 1.71
ALP; ALP 5 U/L, 10 min, single samples
  Normalized FL intensity: 1.648 and 1.73 and 1.752
ALP; ALP 5 U/L, 12 min, mean of 3 samples
  Normalized FL intensity: 1.864
ALP; ALP 5 U/L, 12 min, single samples
  Normalized FL intensity: 1.757 and 1.865 and 1.97
ALP; ALP 5 U/L, 14 min, mean of 3 samples
  Normalized FL intensity: 1.881
ALP; ALP 5 U/L, 14 min, single samples
  Normalized FL intensity: 1.813 and 1.9087 and 1.922
ALP; ALP 10 U/L, 10 min, mean of 3 samples
  Normalized FL intensity: 2.116
ALP; ALP 10 U/L, 10 min, single samples
  Normalized FL intensity: 2.078 and 2.183 and 2.087
ALP; ALP 10 U/L, 12 min, mean of 3 samples
  Normalized FL intensity: 2.286
ALP; ALP 10 U/L, 12 min, single samples
  Normalized FL intensity: 2.204 and 2.296 and 2.357
ALP; ALP 10 U/L, 14 min, mean of 3 samples
  Normalized FL intensity: 2.562
ALP; ALP 10 U/L, 14 min, single samples
  Normalized FL intensity: 2.47 and 2.6 and 2.617
ALP; ALP 10 U/L, 16 min, mean of 3 samples
  Normalized FL intensity: 2.829
ALP; ALP 10 U/L, 16 min, single samples
  Normalized FL intensity: 2.713 and 2.865 and 2.9087
ALP; ALP 20 U/L, 10 min, mean of 3 samples
  Normalized FL intensity: 2.617
ALP; ALP 20 U/L, 10 min, single samples
  Normalized FL intensity: 2.53 and 2.596 and 2.726
ALP; ALP 20 U/L, 12 min, mean of 3 samples
  Normalized FL intensity: 2.996
ALP; ALP 20 U/L, 12 min, single samples
  Normalized FL intensity: 2.926 and 2.987 and 3.074
ALP; ALP 20 U/L, 14 min, mean of 3 samples
  Normalized FL intensity: 3.404
ALP; ALP 20 U/L, 14 min, single samples
  Normalized FL intensity: 3.322 and 3.383 and 3.5087
ALP; ALP 20 U/L, 16 min, mean of 3 samples
  Normalized FL intensity: 3.783
ALP; ALP 20 U/L, 16 min, single samples
  Normalized FL intensity: 3.7 and 3.73 and 3.917
ALP; ALP 50 U/L, 10 min, mean of 3 samples
  Normalized FL intensity: 3.187
ALP; ALP 50 U/L, 10 min, single samples
  Normalized FL intensity: 3.135 and 3.157 and 3.27
ALP; ALP 50 U/L, 12 min, mean of 3 samples
  Normalized FL intensity: 3.6029
ALP; ALP 50 U/L, 12 min, single samples
  Normalized FL intensity: 3.483 and 3.583 and 3.743
ALP; ALP 50 U/L, 14 min, mean of 3 samples
  Normalized FL intensity: 4.096
ALP; ALP 50 U/L, 14 min, single samples
  Normalized FL intensity: 3.9913 and 4.022 and 4.274
ALP; ALP 50 U/L, 16 min, mean of 3 samples
  Normalized FL intensity: 4.5913
ALP; ALP 50 U/L, 16 min, single samples
  Normalized FL intensity: 4.43 and 4.465 and 4.878
ALP; ALP 100 U/L, 10 min, mean of 3 samples
  Normalized FL intensity: 4.5971
ALP; ALP 100 U/L, 10 min, single samples
  Normalized FL intensity: 4.522 and 4.557 and 4.713
ALP; ALP 100 U/L, 12 min, mean of 3 samples
  Normalized FL intensity: 5.171
ALP; ALP 100 U/L, 12 min, single samples
  Normalized FL intensity: 4.861 and 5.296 and 5.357
ALP; ALP 100 U/L, 14 min, mean of 3 samples
  Normalized FL intensity: 5.964
ALP; ALP 100 U/L, 14 min, single samples
  Normalized FL intensity: 5.887 and 5.948 and 6.057
ALP; ALP 100 U/L, 16 min, mean of 3 samples
  Normalized FL intensity: 6.53
ALP; ALP 100 U/L, 16 min, single samples
  Normalized FL intensity: 6.426 and 6.513 and 6.652
ALP; ALP 200 U/L, 10 min, mean of 3 samples
  Normalized FL intensity: 5.588
ALP; ALP 200 U/L, 10 min, single samples
  Normalized FL intensity: 5.343 and 5.613 and 5.8087
ALP; ALP 200 U/L, 12 min, mean of 3 samples
  Normalized FL intensity: 6.483
ALP; ALP 200 U/L, 12 min, single samples
  Normalized FL intensity: 6.217 and 6.557 and 6.674
ALP; ALP 200 U/L, 14 min, mean of 3 samples
  Normalized FL intensity: 6.862
ALP; ALP 200 U/L, 14 min, single samples
  Normalized FL intensity: 6.857 and 6.626 and 7.104
ALP; ALP 500 U/L, 10 min, mean of 3 samples
  Normalized FL intensity: 6.133
ALP; ALP 500 U/L, 10 min, single samples
  Normalized FL intensity: 5.804 and 6.287 and 6.3087
ALP; ALP 500 U/L, 12 min, mean of 3 samples
  Normalized FL intensity: 6.81
ALP; ALP 500 U/L, 12 min, single samples
  Normalized FL intensity: 6.661 and 6.722 and 7.048
ALP; ALP 500 U/L, 14 min, mean of 3 samples
  Normalized FL intensity: 7.207
ALP; ALP 500 U/L, 14 min, single samples
  Normalized FL intensity: 6.848 and 7.161 and 7.613
HeLa cells; [1]
  Amount of Pt in subcellular fraction: 10.4601 fmol and 9.6958 fmol and 8.113 fmol
  Distribution of Pt in subcellular fraction: 43.0958% and 39.9467% and 33.4263%
HeLa cells; [2]
  Amount of Pt in subcellular fraction: 9.42 fmol
  Distribution of Pt in subcellular fraction: 38.82%
HeLa cells; [3]
  Amount of Pt distributed in a single cell's organelle: Cytoplasm: 9.42 ± 1.20 fmol
  Amount of Pt distributed in a single cell's organelle: Lysosome & Mitochondria: 6.34 ± 0.81 fmol
  Amount of Pt distributed in a single cell's organelle: Membrane: 1.46 ± 0.19 fmol
  Amount of Pt distributed in a single cell's organelle: Nucleus: 7.05 ± 0.90 fmol
  Percentage of Pt distributed in a single cell's organelle: Cytoplasm (cytosol): 38.82%
  Percentage of Pt distributed in a single cell's organelle: Lysosome & Mitochondria: 26.11% and ~ 26.11%
  Percentage of Pt distributed in a single cell's organelle: Membrane: 6.02%
  Percentage of Pt distributed in a single cell's organelle: Nucleus: 29.05% and ~ 29.05%
HeLa cells; [4]
  Amount of Pt in subcellular fraction: 0.7699 fmol and 1.266 fmol and 2.345 fmol
  Distribution of Pt in subcellular fraction: 3.1718% and 5.2172% and 9.6606%
HeLa cells; Membrane(M), mean of 3 samples
  Amount of Pt in subcellular fraction: 1.46 fmol
  Distribution of Pt in subcellular fraction: 6.02%
HeLa cells; [5]
  Amount of Pt in subcellular fraction: 6.19 fmol and 6.277 fmol and 6.546 fmol
  Distribution of Pt in subcellular fraction: 25.5012% and 25.8599% and 26.9676%
HeLa cells; [6]
  Amount of Pt in subcellular fraction: 6.34 fmol
  Distribution of Pt in subcellular fraction: 26.11%
HeLa cells; [7]
  Amount of Pt in subcellular fraction: 6.061 fmol and 7.285 fmol and 7.806 fmol
  Distribution of Pt in subcellular fraction: 24.9722% and 30.0159% and 32.1624%
HeLa cells; Nucleus (N), mean of 3 samples
  Amount of Pt in subcellular fraction: 7.05 fmol
  Distribution of Pt in subcellular fraction: 29.05%
